Measured values from patent publication US6448401B1, “Process for water soluble azole compounds” (Bristol-Myers Squibb Company, priority 2000, dated 2002).
≈ marks a conversion by molar mass, not a printed value.

Columns and labels:
aqueous solubility = settings: for solubility (in words): crystalline salts
[1] = stability (in solution / of salts); settings: for stability (in words): crystalline salts
[2] = conversion of prodrug to parent drug in vivo

With `C[C@@H](c1nc(-c2ccc(C#N)cc2)cs1)[C@@](Cn1cncn1)(OCOP(=O)(O)O)c1ccc(F)cc1F` [Example 2, (2R,3R)-3-[4-(4-cyanophenyl)thiazol-2-yl]-2-(2,4-difluorophenyl)-1-(1H-1,2,4-triazol-1-yl)-2-[(dihydrogenphosphonoxy)methoxy]butane] the solubility (aqueous solubility; aqueous solution, pH 4.3, aqueous buffer) was 5000 to 6000 µg/mL (≈ 9.13 to 11 mM), the solubility (aqueous solubility; aqueous solution, pH 7, aqueous buffer) was > 10000 µg/mL and the stability in solution ([1]; in solution) was “stable in solution”. The “conversion to parent drug in vivo” value [2] was “readily converted to parent drug in vivo”.

For `CC(C)(C)N.C[C@@H](c1nc(-c2ccc(C#N)cc2)cs1)[C@@](Cn1cncn1)(OCOP(=O)(O)O)c1ccc(F)cc1F` [Example 4, Tert-butyl amine salt of (2R,3R)-3-[4-(4-cyanophenyl)thiazol-2-yl]-2-(2,4-difluorophenyl)-1-(1H-1,2,4-triazol-1-yl)-2-[(dihydrogenphosphonoxy)methoxy]butane], the “solubility (in words)” value (aqueous solubility) was “good solubility” and the “stability (in words)” value [1] was “good solubility and stability”.

With `C[C@@H](c1nc(-c2ccc(C#N)cc2)cs1)[C@](O)(Cn1cncn1)c1ccc(F)cc1F` [(2R,3R)-3-[4-(4-cyanophenyl)thiazol-2-yl]-2-(2,4-difluorophenyl)-1-(1 H-1,2,4-triazol-1-yl)-butan-2-ol, reference compound] the solubility (aqueous solubility; water, pH 6.8, water) was 0.6 µg/mL (≈ 0.00137 mM).

For `C[C@@H](c1nc(-c2ccc(C#N)cc2)cs1)[C@@](Cn1cncn1)(OCOP(=O)(O)O)c1ccc(F)cc1F.NCCCC[C@H](N)C(=O)O.NCCCC[C@H](N)C(=O)O` [Example 3, Bis lysine salt of (2R,3R)-3-[4-(4-cyanophenyl)thiazol-2-yl]-2-(2,4-difluorophenyl)-1-(1H-1,2,4-triazol-1-yl)-2-[(dihydrogenphosphonoxy)methoxy]butane], the “solubility (in words)” value (aqueous solubility) was “good solubility” and the “stability (in words)” value [1] was “good solubility and stability”.
